The record followed here is US7932255B2, “2-aminocarbonyl substituted piperazine or diaza-cyclic compounds as apoptosis protein inhibitors (lap) modulators” (Novartis AG, priority 2006, dated 2011).

pIC50: −log10 of the molar value. Where no end group is shown, it is not given here.

In one assay the target is T1, XIAP (Homo sapiens, UniProt P98170).
T1 construct: GST
T1 sequence (P98170 248-358 limits assumed, species assumed): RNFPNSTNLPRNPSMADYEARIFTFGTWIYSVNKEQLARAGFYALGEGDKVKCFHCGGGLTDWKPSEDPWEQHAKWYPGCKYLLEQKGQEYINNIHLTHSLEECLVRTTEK
Put plainly: Disruption of the Smac peptide-(XIAP)BIR3 protein-protein interaction (Tables 2 and 3). To be noted: Series A compounds, Table 2; read-out: XIAP IC50. In kind it is binding. The method in brief: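 Compounds compete with immobilized Smac peptide for the XIAP BIR3 pocket. Percent inhibition at 4 concentrations (usually 3- or 10-fold series from 10 μM); IC50 by logarithmic regression, normalized to an average reference-inhibitor IC50.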
Turning to `CN[C@@H](C)C(=O)N[C@H](C(=O)N1CCN(Cc2ccccc2)C[C@H]1C(=O)NC1CCCc2ccccc21)C(C)C` (stereo partly drawn) [Compound 52, (S)-4-Benzyl-1-[(S)-3-methyl-2-((S)-2-methylamino-propionylamino)-butyryl]-piperazine-2-carboxylic acid (1,2,3,4-tetrahydro-naphthalen-1-yl)-amide], the pIC50 is above 5.00.
On the same count and under the same terms, to `CN[C@@H](C)C(=O)N[C@H](C(=O)N1CCN(Cc2ccccn2)C[C@H]1C(=O)NC1CCCc2ccccc21)C(C)C` (stereo partly drawn) [Compound 49, (S)-1-[(S)-3-Methyl-2-((S)-2-methylamino-propionylamino)-butyryl]-4-pyridin-2-ylmethyl-piperazine-2-carboxylic acid (1,2,3,4-tetrahydro-naphthalen-1-yl)-amide] belongs above 5.00; to `CN[C@@H](C)C(=O)N[C@H](C(=O)N1CCN(CCC(C)(C)C)C[C@H]1C(=O)NC1CCCc2ccccc21)C(C)C` (stereo partly drawn) [Compound 21, (S)-4-(3,3-Dimethyl-butyl)-1-[(S)-3-methyl-2-((S)-2-methylamino-propionylamino)-butyryl]-piperazine-2-carboxylic acid (1,2,3,4-tetrahydro-naphthalen-1-yl)-amide], above 5.00.
As to `CN[C@@H](C)C(=O)N[C@H](C(=O)N1CCNC[C@H]1C(=O)NC1CCCc2ccccc21)C1CCCCC1` (stereo partly drawn) [Compound 59, (S)-1-[(S)-2-Cyclohexyl-2-((S)-2-methylamino-propionylamino)-acetyl]-piperazine-2-carboxylic acid (1,2,3,4-tetrahydro-naphthalen-1-yl)-amide], the pIC50 is above 5.00.
The same measure, in the same setting: to `CN[C@@H](C)C(=O)N[C@H](C(=O)N1CCN(C(=O)NC2CCCC2)C[C@H]1C(=O)NC1CCCc2ccccc21)C(C)C` (stereo partly drawn) [Compound 28, (S)-4-[(S)-3-Methyl-2-((S)-2-methylamino-propionylamino)-butyryl]-piperazine-1,3-dicarboxylic acid 1-cyclopentylamide 3-[(1,2,3,4-tetrahydro-naphthalen-1-yl)-amide]] belongs above 5.00.
Same read-out and setting: to “4-Benzyl-1-[3-methyl-2-(2-methylamino-propionylamino)-butyryl]-piperazine-2-carboxylic acid (1,2,3,4-tetrahydro-naphthalen-1-yl)-amide [Compound 1]” belongs above 5.00; to `CN[C@@H](C)C(=O)N[C@H](C(=O)N1CCN(C(=O)NCc2ccccc2)C[C@H]1C(=O)NC1CCCc2ccccc21)C(C)C` (stereo partly drawn) [Compound 5, (S)-4-[(S)-3-Methyl-2-((S)-2-methylamino-propionylamino)-butyryl]-piperazine-1,3-dicarboxylic acid 1-benzylamide 3-[(1,2,3,4-tetrahydro-naphthalen-1-yl)-amide]], above 5.00.
Same read-out and setting: the result for `CNC(C)C(=O)NC(C(=O)N1CCN(S(=O)(=O)c2ccccc2)CC1C(=O)NC1CCCc2ccccc21)C(C)C` (stereo not drawn) [Compound 2, 4-Benzenesulfonyl-1-[3-methyl-2-(2-methylamino-propionylamino)-butyryl]-piperazine-2-carboxylic acid (1,2,3,4-tetrahydro-naphthalen-1-yl)-amide] reads above 5.00; that for `CN[C@@H](C)C(=O)N[C@H](C(=O)N1CCN(C(=O)OCC(C)C)C[C@H]1C(=O)NC1CCCc2ccccc21)C(C)C` (stereo partly drawn) [Compound 31, (S)-4-[(S)-3-Methyl-2-((S)-2-methylamino-propionylamino)-butyryl]-3-(1,2,3,4-tetrahydro-naphthalen-1-ylcarbamoyl)-piperazine-1-carboxylic acid isobutyl ester], above 5.00; that for `CN[C@@H](C)C(=O)N[C@H](C(=O)N1CCN(c2ccc(F)cc2)C[C@H]1C(=O)NC1CCCc2ccccc21)C(C)C` (stereo partly drawn) [Compound 44, (S)-4-(4-Fluoro-phenyl)-1-[(S)-3-methyl-2-((S)-2-methylamino-propionylamino)-butyryl]-piperazine-2-carboxylic acid (1,2,3,4-tetrahydro-naphthalen-1-yl)-amide], above 5.00.
Consider `CN[C@@H](C)C(=O)N[C@H](C(=O)N1CCN(Cc2cccc(Oc3ccccc3)c2)C[C@H]1C(=O)NC1CCCc2ccccc21)C(C)C` (stereo partly drawn) [Compound 4, (S)-1-[(S)-3-Methyl-2-((S)-2-methylamino-propionylamino)-butyryl]-4-(3-phenoxy-benzyl)-piperazine-2-carboxylic acid (1,2,3,4-tetrahydro-naphthalen-1-yl)-amide], for which the pIC50 was above 5.00.
Still for that read-out and setting: to `CN[C@@H](C)C(=O)N[C@H](C(=O)N1CCNC[C@H]1C(=O)NC1CCCc2ccccc21)C(C)C` (stereo partly drawn) [Compound 56, (S)-1-[(S)-3-Methyl-2-((S)-2-methylamino-propionylamino)-butyryl]-piperazine-2-carboxylic acid (1,2,3,4-tetrahydro-naphthalen-1-yl)-amide] belongs above 5.00; to `CN[C@@H](C)C(=O)N[C@H](C(=O)N1CCN(C(=O)c2ccc(F)cc2)C[C@H]1C(=O)NC1CCCc2ccccc21)C(C)C` (stereo partly drawn) [Compound 17, (S)-4-(4-Fluoro-benzoyl)-1-[(S)-3-methyl-2-((S)-2-methylamino-propionylamino)-butyryl]-piperazine-2-carboxylic acid (1,2,3,4-tetrahydro-naphthalen-1-yl)-amide], above 5.00.
Still for that read-out and setting: to `CN[C@@H](C)C(=O)N[C@H](C(=O)N1CCN(Cc2ccc(C#N)cc2)C[C@H]1C(=O)NC1CCCc2ccccc21)C(C)C` (stereo partly drawn) [Compound 43, (S)-4-(4-Cyano-benzyl)-1-[(S)-3-methyl-2-((S)-2-methylamino-propionylamino)-butyryl]-piperazine-2-carboxylic acid (1,2,3,4-tetrahydro-naphthalen-1-yl)-amide] belongs above 5.00; to `CN[C@@H](C)C(=O)N[C@H](C(=O)N1CCN(Cc2cccnc2)C[C@H]1C(=O)NC1CCCc2ccccc21)C(C)C` (stereo partly drawn) [Compound 3, (S)-1-[(S)-3-Methyl-2-((S)-2-methylamino-propionylamino)-butyryl]-4-pyridin-3-ylmethyl-piperazine-2-carboxylic acid (1,2,3,4-tetrahydro-naphthalen-1-yl)-amide], above 5.00; to `CN[C@@H](C)C(=O)N[C@H](C(=O)N1CCN(Cc2ccc(C)cc2)C[C@H]1C(=O)NC1CCCc2ccccc21)C(C)C` (stereo partly drawn) [Compound 51, (S)-4-(4-Methyl-benzyl)-1-[(S)-3-methyl-2-((S)-2-methylamino-propionylamino)-butyryl]-piperazine-2-carboxylic acid (1,2,3,4-tetrahydro-naphthalen-1-yl)-amide], above 5.00.

The assay is the same for the next values; noted with them: Series B compounds, Table 3; read-out: XIXP IC50.
In the case of `CN[C@@H](C)C(=O)N[C@H](C(=O)N1CCN(Cc2ccccc2)C[C@H]1C(=O)NC1CCc2ccccc21)C(C)C` (stereo partly drawn) [Compound 62, (S)-4-Benzyl-1-[(S)-3-methyl-2-((S)-2-methylamino-propionylamino)-butyryi]-piperazine-2-carboxylic acid indan-1-ylamide], the pIC50 was above 5.00.
As for `CN[C@@H](C)C(=O)N[C@H](C(=O)N1CCN(Cc2ccccc2)C[C@H]1C(=O)NCCCc1ccccc1)C(C)C` [Compound 72, (S)-4-Benzyl-1-[(S)-3-methyl-2-((S)-2-methylamino-propionylamino)-butyryl]-piperazine-2-carboxylic acid (3-phenyl-propyl)-amide], the pIC50 was below 5.00.
On to `CN[C@@H](C)C(=O)N[C@H](C(=O)N1CCN(Cc2ccccc2)C[C@H]1C(=O)N1Cc2ccccc2C1)C(C)C` [Compound 85, (S)-N-{(S)-1-[(S)-4-Benzyl-2-(1,3-dihydro-isoindole-2-carbonyl)-piperazine-1-carbonyl]-2-methyl-propyl}-2-methylamino-propionamide], for which the pIC50 is above 5.00.
Consider `CN[C@@H](C)C(=O)N[C@H](C(=O)N1CCN(Cc2ccccc2)C[C@H]1C(=O)NCc1cc(F)cc(F)c1)C(C)C` [Compound 84, (S)-4-Benzyl-1-[(S)-3-methyl-2-((S)-2-methylamino-propionylamino)-butyryl]-piperazine-2-carboxylic acid 3,5-difluoro-benzylamide], for which the pIC50 is above 5.00.
For the molecule `CN[C@@H](C)C(=O)N[C@H](C(=O)N1CCN(Cc2ccccc2)C[C@H]1C(=O)NCc1ccc(F)cc1)C(C)C` [Compound 70, (S)-4-Benzyl-1-[(S)-3-methyl-2-((S)-2-methylamino-propionylamino)-butyryl]-piperazine-2-carboxylic acid 4-fluoro-benzylamide], the pIC50 is above 5.00.
On the same count and under the same terms, to `CN[C@@H](C)C(=O)N[C@H](C(=O)N1CCN(Cc2ccccc2)C[C@H]1C(=O)NC1CCc2ccccc2C1)C(C)C` (stereo partly drawn) [Compound 74, (S)-4-Benzyl-1-[(S)-3-methyl-2-((S)-2-methylamino-propionylamino)-butyryl]-piperazine-2-carboxylic acid (1,2,3,4-tetrahydro-naphthalen-2-yl)-amide] belongs above 5.00.
Regarding `CN[C@@H](C)C(=O)N[C@H](C(=O)N1CCN(Cc2ccccc2)C[C@H]1C(=O)NCCc1ccc(F)cc1)C(C)C` [Compound 71, (S)-4-Benzyl-1-[(S)-3-methyl-2-((S)-2-methylamino-propionylamino)-butyryl]-piperazine-2-carboxylic acid [2-(4-fluoro-phenyl)-ethyl]-amide], the pIC50 was above 5.00.

The next assay deals with GST-BIR3 fusion protein. Briefly: FMAT Smac peptide / GST-BIR3 competition assay. In kind it is binding. The note with it: competing GST-BIR3 off the FMAT beads; read-out: IC50 for non-biotinylated Smac (FMAT). The protocol:
In order to measure the ability of the inventive compounds to bind the BIR3 peptide binding pocket, a solution phase assay on the FMAT or ELISA technology platform is utilized.
Biotinylated Smac 7-mer peptide (AVPIAQK, lysine ε-amino group is biotinylated) is immobilized on streptavidin coated beads. GST-BIR3 fusion protein is precipitated with FMAT beads and is detected using fluorescent tagged anti-GST antibodies. […] The IC50 for non-biotinylated Smac is 400 nM.
As to AVPIAQK [non-biotinylated Smac], the pIC50 is 6.40.

A word on the pIC50: it is the IC50 on a negative log10 scale, so that one unit is a factor of ten.
